Some results are limits rather than exact numbers.

These results are taken from ChEMBL document CHEMBL4392824, “Design, synthesis and bioevaluation of 3-oxo-6-aryl-2,3-dihydropyridazine-4-carbohydrazide derivatives as novel xanthine oxidase inhibitors” (Bioorg Med Chem, 2019).

The target in series [1] is T1, Xanthine dehydrogenase/oxidase (Bos taurus, UniProt P80457). As to the kind of experiment: Inhibition of bovine xanthine oxidase assessed as reduction in uric acid formation preincubated for 5 mins followed by xanthine addition and measured after 20 mins by spectrophotometry.
T1 sequence (P80457 whole entry): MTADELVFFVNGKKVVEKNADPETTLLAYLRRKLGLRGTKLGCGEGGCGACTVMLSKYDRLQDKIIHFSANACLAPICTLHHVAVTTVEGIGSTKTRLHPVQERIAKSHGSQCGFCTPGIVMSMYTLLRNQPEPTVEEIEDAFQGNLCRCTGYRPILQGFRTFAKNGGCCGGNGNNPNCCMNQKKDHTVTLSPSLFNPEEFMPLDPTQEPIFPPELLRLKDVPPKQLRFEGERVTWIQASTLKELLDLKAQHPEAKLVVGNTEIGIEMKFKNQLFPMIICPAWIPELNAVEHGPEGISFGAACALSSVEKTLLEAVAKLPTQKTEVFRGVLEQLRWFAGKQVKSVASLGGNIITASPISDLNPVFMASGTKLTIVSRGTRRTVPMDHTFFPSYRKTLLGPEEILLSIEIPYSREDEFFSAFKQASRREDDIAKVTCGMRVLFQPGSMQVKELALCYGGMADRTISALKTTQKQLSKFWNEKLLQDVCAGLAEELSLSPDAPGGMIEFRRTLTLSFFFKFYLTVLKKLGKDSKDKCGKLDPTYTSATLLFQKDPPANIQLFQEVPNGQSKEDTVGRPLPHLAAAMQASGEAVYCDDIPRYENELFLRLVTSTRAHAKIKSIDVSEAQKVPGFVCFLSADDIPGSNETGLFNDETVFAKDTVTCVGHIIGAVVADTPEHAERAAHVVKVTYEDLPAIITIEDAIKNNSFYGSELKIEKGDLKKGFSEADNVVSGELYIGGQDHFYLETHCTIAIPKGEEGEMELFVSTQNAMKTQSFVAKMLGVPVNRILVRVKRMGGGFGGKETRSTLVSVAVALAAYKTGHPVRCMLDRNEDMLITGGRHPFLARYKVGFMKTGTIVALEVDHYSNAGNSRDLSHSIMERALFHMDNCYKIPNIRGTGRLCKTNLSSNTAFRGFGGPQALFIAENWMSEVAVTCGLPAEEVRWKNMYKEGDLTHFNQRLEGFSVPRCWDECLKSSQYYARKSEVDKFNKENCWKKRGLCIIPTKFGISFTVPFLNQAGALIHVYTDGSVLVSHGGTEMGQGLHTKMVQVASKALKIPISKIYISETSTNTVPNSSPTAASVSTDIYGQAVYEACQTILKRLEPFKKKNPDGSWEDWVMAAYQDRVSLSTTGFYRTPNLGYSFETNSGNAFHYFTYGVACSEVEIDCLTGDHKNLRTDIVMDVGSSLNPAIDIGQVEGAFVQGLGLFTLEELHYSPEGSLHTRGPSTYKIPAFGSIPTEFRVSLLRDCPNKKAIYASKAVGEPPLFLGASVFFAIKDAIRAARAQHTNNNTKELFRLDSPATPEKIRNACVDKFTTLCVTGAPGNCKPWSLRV
Series [2] concerns the target T1, Xanthine dehydrogenase/oxidase. As to the kind of experiment: Inhibition of bovine xanthine oxidase assessed as reduction in uric acid formation at 10 uM preincubated for 5 mins followed by xanthine addition and measured after 20 mins by spectrophotometry. The settings on record: cattle.
For series [3] the target is unchanged. As to the kind of experiment: Mixed type inhibition of bovine xanthine oxidase assessed as reduction in uric acid formation at 0.5 to 2 uM preincubated for 5 mins followed by xanthine addition and measured after 20 mins by spectrophotometry based Lineweaver-Burk plot analysis. The settings on record: cattle.

The term IC50 denotes the concentration that inhibits the measured activity by half. As a reminder, the inhibition is the drop in the measured response relative to a control, in per cent. As for `NNC(=O)c1cc(-c2ccc([N+](=O)[O-])cc2)n[nH]c1=O`, in series [1], the IC50 entry was “Not Active”. Also, the inhibition at 10 µM in series [2] was less than 50%.
Consider `NNC(=O)c1cc(-c2cccc([N+](=O)[O-])c2)n[nH]c1=O`, for which the IC50 entry in series [1] was “Not Active”. In addition, the inhibition at 10 µM in series [2] was less than 50%.
`CC(C)COc1ccc(-c2cc(C(=O)NN)c(=O)[nH]n2)cc1`: the IC50 entry in series [1] is given as “Not Active”. Moreover, the inhibition at 10 µM in series [2] was less than 50%.
Take `CC(C)Oc1ccc(-c2cc(C(=O)NN)c(=O)[nH]n2)cc1C#N`: in series [1] (read-out: IC50), the IC50 amounted to 1.03 µM. For the same compound, the “inhibition (INH)” value in series [3] is “Active”.
Turning to `NNC(=O)c1cc(-c2ccccc2)n[nH]c1=O`, the IC50 entry in series [1] was “Not Active”. Also, the inhibition at 10 µM in series [2] is less than 50%.
`CC(C)CCOc1ccc(-c2cc(C(=O)O)c(=O)[nH]n2)cc1C#N`: the half-inhibitory concentration (IC50) entry in series [1] was “Not Active”. Moreover, in series [2], the inhibition at 10 µM was less than 50%.
As to `CC(C)COc1ccc(-c2cc(C(=O)NN)c(=O)[nH]n2)cc1[N+](=O)[O-]`, the IC50 in series [1] (read-out: IC50) stood at 3.65 µM.
Turning to `CCCOc1ccc(-c2cc(C(=O)NN)c(=O)[nH]n2)cc1C#N`, the concentration for half-maximal inhibition (IC50) in series [1] (read-out: IC50) came to 3.1 µM.
Regarding `CCCCCOc1ccc(-c2cc(C(=O)NN)c(=O)[nH]n2)cc1C#N`, the IC50 in series [1] (read-out: IC50) came out at 5.89 µM.
On the same count and under the same terms, next, `CC(C)CCOc1ccc(-c2cc(C(=O)NN)c(=O)[nH]n2)cc1C#N`: 4.5 µM; `CC(C)Oc1ccc(-c2cc(C(=O)NN)c(=O)[nH]n2)cc1[N+](=O)[O-]`: 1.92 µM.
As for `CC(C)COc1ccc(-c2cc(C(=O)NN)c(=O)[nH]n2)cc1C#N`, the IC50 in series [1] (read-out: IC50) is 2.97 µM.
Consider `CC(C)COc1ccc(-c2cc(C(=O)O)c(=O)[nH]n2)cc1C#N`, for which the IC50 result in series [1] was “Not Active”. Besides, in series [2], the inhibition at 10 µM is less than 50%.
For the compound `CCOc1ccc(-c2cc(C(=O)NN)c(=O)[nH]n2)cc1C#N`, in series [1] (read-out: IC50), the half-inhibitory concentration (IC50) turned out to be 2.54 µM.
In the case of `CCCCOc1ccc(-c2cc(C(=O)NN)c(=O)[nH]n2)cc1C#N`, the IC50 in series [1] (read-out: IC50) is 5.24 µM.
As for `CC(C)Oc1ccc(-c2cc(C(=O)NN)c(=O)[nH]n2)cc1`, in series [1], the IC50 entry is on record as “Not Active”. Further, the inhibition at 10 µM in series [2] was less than 50%.
On to `CC(C)Oc1ccc(-c2cc(C(=O)O)c(=O)[nH]n2)cc1[N+](=O)[O-]`, for which, in series [1], the half-maximal inhibitory concentration (IC50) result was “Not Active”. In addition, in series [2], the inhibition at 10 µM was less than 50%.
`CC(C)CCOc1ccc(-c2cc(C(=O)NN)c(=O)[nH]n2)cc1[N+](=O)[O-]`: the IC50 in series [1] (read-out: IC50) came to 6.02 µM.
